We go through 32 molecules from patent US9150512B2, “Tricyclic lactam derivatives as 11-beta hydroxysteroid dehydrogenase inhibitors” (Janssen Pharmaceutica NV, priority 2004, dated 2015).

A value given as a limit tells only on which side of the number the result lay.

One test has as its target T1, 11b-HSD1 (Mus musculus, UniProt P50172).
T1 construct: endogenous in cells; host or cells: 3T3-L1 (ATCC-CL-173), differentiated into adipocytes
As to the kind of experiment: Cellular assay, 11b-HSD1 activity in differentiated 3T3-L1 cells. Conditions: 4 hour pre-incubation, pIC50 scored, read-out: [C2] HSD1 cellular 3T3-L1 Score. In kind it is cell-based. The procedure: The effects on 11b-HSD1 activity was measured in differentiated 3T3-L1 cells and rat hepatocytes.
Mouse fibroblast 3T3-L1 cells (ATCC-CL-173) were seeded at a density of 16500 cells/ml in 12 well plates and grown for 7 days in DMEM medium (supplemented with 10% heat inactivated foetal calf serum, 2 mM glutamine and 25 mg gentamycin) at 37° C. in a humidified 5% CO2 atmosphere. Medium was refreshed twice a week. Fibroblasts were differentiated into adipocytes at 37° C. in a 5% CO2 humidified atmosphere in growth medium containing 2 μg/ml insulin, 55 μg/ml IBMX and 39.2 μg/ml dexamethasone.
Primary hepatocytes from male rats were seeded on normal Falcon 12 well plates at a density of 250000 cells/well and incubated for 16 hours at 37° C. in a 5% CO2 humidified atmosphere in DMEM-HAM's F12 medium containing 5% Nu-serum, 100 U/ml penicillin, 100 μg/ml streptomycin, 0.25 μg/ml amphotericin B, 50 μg/ml gentamycin sulfate, 5 μg/ml insulin and 392 ng/ml dexamethasone. Following a 4 hour pre-incubation with test compound, 0.5 μCi ^3H-cortisone or dehydrocorticosterone, was added to the 3T3-L1 cultures. One hour later, the medium was extracted on Extrelut^3-columns with 15 ml diethyl ether and the extract was analysed by HPLC as described above. The effects of JNJ-compounds on rat hepatocyte HSD1 activity was measured after an incubation period of 90 minutes with 0.5 μCi^3H-dehydrocorticosterone. Corticosterone formation was analysed by HPLC.
(§1) As for the enzymatic assays, the compounds to be tested were taken from a stock solution and tested at a final concentration ranging from −10^−5M to 3·10^−9M. From the thus obtained dose response curves, the pIC50 value was calculated and scored as follows; Score 1=pIC50 value<5, Score 2=pIC50 value in the range of 5 to 6, Score 3=pIC50 value>6. (in this table NT stands for Not Tested).

For another test, the target named is hHSD1 (Homo sapiens, UniProt P28845). Put plainly: Enzymatic assay, 11b-HSD1 reductase activity (conversion of cortisone into cortisol), recombinant protein. In kind it is biochemical. Conditions: 2 μM cortisone, 180 μM NADPH, pH 7.2, pIC50 scored, read-out: [C1] hHSD1 reductase Score. How it is done:
The effects of compounds on 11b-HSD1 dependent conversion of cortisone into cortisol (reductase activity) was studied in a reaction mixture containing 30 mM Tris-HCl buffer pH 7.2, 180 μM NADPH, 1 mM EDTA, 2 μM cortisone, 1 μl drug and/or solvent and 11 μg recombinant protein in a final volume of 100 μl.
All incubations were performed for 45 min at 37 C in a water bath. The reaction was stopped by adding 100 μl acetonitrile containing 20 μg corticosterone as internal standard. After centrifugation, the product formation was analysed in the supernatant by HPLC on a Hypersyl BDS-C18 column using 0.05 mM ammonium acetate/methanol (50/50) as solvent. In all of the aforementioned assays, the drugs to be tested were taken from a stock solution and tested at a final concentration ranging from −10^−5M to 3·10^−9M. From the thus obtained dose response curves, the pIC50 value was calculated and scored as follows; Score 1=pIC50 value<5, Score 2=pIC50 value in the range of 5 to 6, Score 3=pIC50 value>6. (in this table NT stands for Not Tested).

The target in the next test is T2, 11b-HSD2 (Homo sapiens, UniProt P80365).
T2 construct: endogenous in cells; host or cells: HepG2 (ATCC HB-8065)
T2 sequence (P80365 1-405): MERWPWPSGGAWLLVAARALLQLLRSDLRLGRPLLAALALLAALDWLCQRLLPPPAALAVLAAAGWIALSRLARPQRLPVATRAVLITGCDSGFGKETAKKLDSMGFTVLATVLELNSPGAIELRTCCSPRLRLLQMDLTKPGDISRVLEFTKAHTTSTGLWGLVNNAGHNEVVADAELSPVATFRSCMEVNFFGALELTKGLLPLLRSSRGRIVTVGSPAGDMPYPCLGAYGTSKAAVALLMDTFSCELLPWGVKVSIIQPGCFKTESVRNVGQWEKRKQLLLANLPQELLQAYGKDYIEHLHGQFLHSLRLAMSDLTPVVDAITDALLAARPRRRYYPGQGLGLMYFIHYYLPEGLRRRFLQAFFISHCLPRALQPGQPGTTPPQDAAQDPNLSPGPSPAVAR
As to the kind of experiment: Cellular assay, 11b-HSD2 activity in HepG2 cells. Conditions: 4 hour pre-incubation, pIC50 scored, read-out: [C2] HSD2 cellular HepG2 Score. In kind it is cell-based. How it is done:
The effects on 11b-HSD2 activity was studied in HepG2 and LCC-PK1-cells HepG2-cells (ATCC HB-8065) were seeded in 12 well plates at a density of 100,000 cells/ml and grown at 37° C. in a humidified 5% CO2 atmosphere in MEM-Rega-3 medium supplemented with 10% heat inactivated foetal calf serum, 2 mM L-glutamine and sodium bicarbonate). Medium was refreshed twice a week.
Following a 4 hour pre-incubation with test compound, 0.5 μCi ^3H-cortisol or corticosterone, was added to the cultures. One hour later, the medium was extracted on Extrelut^3-columns with 15 ml diethyl ether and the extract was analysed by HPLC as described above.
as §1

T1 sequence (P50172 whole entry): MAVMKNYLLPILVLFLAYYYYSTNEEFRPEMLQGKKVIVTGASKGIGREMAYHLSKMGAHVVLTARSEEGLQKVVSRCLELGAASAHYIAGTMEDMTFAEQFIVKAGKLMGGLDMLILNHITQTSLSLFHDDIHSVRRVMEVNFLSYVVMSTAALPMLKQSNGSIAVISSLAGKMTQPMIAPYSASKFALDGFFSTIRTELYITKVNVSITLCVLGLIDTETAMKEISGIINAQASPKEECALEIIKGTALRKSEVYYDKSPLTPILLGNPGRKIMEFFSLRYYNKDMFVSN
Chain of hHSD1 (P28845 whole entry): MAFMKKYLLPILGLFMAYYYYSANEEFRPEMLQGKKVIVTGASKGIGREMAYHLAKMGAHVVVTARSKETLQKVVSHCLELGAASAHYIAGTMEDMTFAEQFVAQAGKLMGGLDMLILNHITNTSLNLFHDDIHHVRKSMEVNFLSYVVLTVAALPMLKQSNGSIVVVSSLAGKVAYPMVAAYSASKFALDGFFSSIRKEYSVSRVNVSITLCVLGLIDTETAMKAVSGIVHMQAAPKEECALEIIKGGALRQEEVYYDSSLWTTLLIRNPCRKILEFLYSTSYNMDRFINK

As to `O=C1[C@@H]2c3ccccc3CC[C@@H]2CN1C1C2CC3CC(C2)CC1C3` (stereo partly shown) [Compound 1], the IC50 on 11b-HSD1 and on hHSD1 was 1000 to 10000 nM each time.

With `O=C1C2Cc3ccccc3CC2CN1C1C2CC3CC(C2)CC1C3` (stereo not shown) [Compound 2], the IC50 was less than 1000 nM at 11b-HSD1, less than 1000 nM on hHSD1 and 1000 to 10000 nM on 11b-HSD2.

For `O=C1[C@H]2CCc3ccccc3[C@@H]2CN1C1C2CC3CC(C2)CC1C3` (stereo partly shown) [Compound 3], the IC50 at 11b-HSD1, on hHSD1 and at 11b-HSD2 was less than 1000 nM throughout.

`O=C1[C@H]2Cc3ccccc3CN2CN1C1C2CC3CC(C2)CC1C3` (stereo partly shown) [Compound 4]: the IC50 on 11b-HSD1 is less than 1000 nM; at hHSD1 it was more than 10000 nM; at 11b-HSD2, more than 10000 nM.

As for `O=C1N(C2C3CC4CC(C3)CC2C4)C[C@H]2Cc3ccccc3CN12` (stereo partly shown) [Compound 5], the results for the IC50 at 11b-HSD1, at hHSD1 and on 11b-HSD2 were less than 1000 nM, 1000 to 10000 nM and 1000 to 10000 nM, respectively.

Consider `O=C1N2CCc3ccccc3C2CN1C1C2CC3CC(C2)CC1C3` (stereo not shown) [Compound 6], for which the IC50 at 11b-HSD1, at hHSD1 and on 11b-HSD2 was less than 1000 nM throughout.

`O=C1N2CCc3ccc(Br)cc3C2CN1C1C2CC3CC(C2)CC1C3` (stereo not shown) [Compound 7]: the IC50 on 11b-HSD1 and on hHSD1 was less than 1000 nM in each case.

On to `O=C1[C@@H]2CCc3ccccc3[C@@H]2CN1C1C2CC3CC(C2)CC1C3` (stereo partly shown) [Compound 8], for which the IC50 at 11b-HSD1 is less than 1000 nM; at hHSD1, 1000 to 10000 nM; on 11b-HSD2 it was 1000 to 10000 nM.

As for `COc1cccc2c1CC1CN(C3C4CC5CC(C4)CC3C5)C(=O)C1C2` (stereo not shown) [Compound 9], the IC50 on 11b-HSD1 is less than 1000 nM; on hHSD1 it was 1000 to 10000 nM; at 11b-HSD2, 1000 to 10000 nM.

In the case of `COc1ccc2c(c1)CC1C(=O)N(C3C4CC5CC(C4)CC3C5)CC1C2` (stereo not shown) [Compound 10], the results for the IC50 on 11b-HSD1, at hHSD1 and on 11b-HSD2 were less than 1000 nM, less than 1000 nM and more than 10000 nM, respectively.

On to `O=C1N(C2C3CC4CC(C3)CC2C4)C[C@@H]2Cc3ccccc3CN12` (stereo partly shown) [Compound 11], for which, at 11b-HSD1, the IC50 was less than 1000 nM.

Regarding `O=C1[C@@H]2Cc3ccccc3CN2CN1C1C2CC3CC(C2)CC1C3` (stereo partly shown) [Compound 12], at 11b-HSD1, the IC50 lay within 1000 to 10000 nM.

As to `O=C1N(C2C3CC4CC(C3)CC2C4)CC2CCc3ccccc3N12` (stereo not shown) [Compound 13], the IC50 at 11b-HSD1, on hHSD1 and on 11b-HSD2 was more than 10000 nM throughout.

As to `O=C1N(CC23CC4CC(CC(C4)C2)C3)CC2c3ccccc3CCN12` (stereo not shown) [Compound 14], the IC50 on 11b-HSD1 was less than 1000 nM; on hHSD1, less than 1000 nM; on 11b-HSD2, 1000 to 10000 nM.

Take `O=C1[C@H]2CCc3ccccc3[C@@H]2CN1CC12CC3CC(CC(C3)C1)C2` [Compound 15]: the values for the IC50 on 11b-HSD1, on hHSD1 and at 11b-HSD2 were less than 1000 nM, less than 1000 nM and 1000 to 10000 nM, respectively.

Take `O=C1[C@@H]2CCc3ccccc3[C@@H]2CN1CC12CC3CC(CC(C3)C1)C2` [Compound 16]: the values for the IC50 on 11b-HSD1, at hHSD1 and on 11b-HSD2 were less than 1000 nM, less than 1000 nM and 1000 to 10000 nM, respectively.

With `O=C1[C@H]2CCc3ccccc3[C@@H]2CN1C12CC3CC(CC(C3)C1)C2` [Compound 17], the IC50 at 11b-HSD1, at hHSD1 and on 11b-HSD2 was less than 1000 nM each time.

Regarding `O=C1[C@H]2Cc3ccsc3C[C@@H]2CN1C1C2CC3CC(C2)CC1C3` (stereo partly shown) [Compound 18], the IC50 on 11b-HSD1 was less than 1000 nM; at hHSD1, less than 1000 nM; on 11b-HSD2, 1000 to 10000 nM.

As for `O=C1[C@@H]2CCc3ccccc3[C@H]2CN1Cc1ccccc1` [Compound 19], the IC50 at 11b-HSD1 is less than 1000 nM; on hHSD1 it was more than 10000 nM.

As for `O=C1[C@@H]2CCc3ccccc3[C@@H]2CN1Cc1ccccc1` [Compound 20], the IC50 on 11b-HSD1 is less than 1000 nM; at hHSD1, 1000 to 10000 nM.

In the case of `O=C1C2=Cc3cccnc3CC2CN1C1C2CC3CC(C2)CC1C3` (stereo not shown) [Compound 21], the IC50 is less than 1000 nM on 11b-HSD1 and more than 10000 nM at hHSD1.

Regarding `O=C1C2=Cc3cnccc3CC2CN1C1C2CC3CC(C2)CC1C3` (stereo not shown) [Compound 22], the IC50 was less than 1000 nM at 11b-HSD1 and 1000 to 10000 nM at hHSD1.

Turning to `O=C1N2CCc3c(Br)cccc3C2CN1C1C2CC3CC(C2)CC1C3` (stereo not shown) [Compound 23], the IC50 on 11b-HSD1, at hHSD1 and at 11b-HSD2 was less than 1000 nM throughout.

For the molecule `O=C1[C@@H]2Cc3ccccc3C[C@@H]2CN1[C@@H]1[C@@H]2CC3C[C@H]1C[C@](O)(C3)C2` [Compound 26], the IC50 at 11b-HSD1 is 1000 to 10000 nM; on hHSD1 it was 1000 to 10000 nM; on 11b-HSD2 it was more than 10000 nM.

As to `O=C1[C@H]2Cc3ccccc3C[C@H]2CN1[C@H]1[C@@H]2CC3C[C@H]1C[C@](O)(C3)C2` [Compound 27], the IC50 on 11b-HSD1 is less than 1000 nM; on hHSD1, less than 1000 nM; on 11b-HSD2, 1000 to 10000 nM.

As to `O=C1[C@@H]2Cc3cccnc3C[C@@H]2CN1[C@@H]1[C@@H]2CC3C[C@H]1C[C@](O)(C3)C2` [Compound 28], the IC50 on 11b-HSD1, at hHSD1 and at 11b-HSD2 was more than 10000 nM in each case.

For the molecule `O=C1[C@H]2Cc3cnccc3C[C@H]2CN1[C@@H]1[C@@H]2CC3C[C@H]1C[C@](O)(C3)C2` [Compound 29], the IC50 on 11b-HSD1, at hHSD1 and on 11b-HSD2 was more than 10000 nM each time.

As for `O=C1C2=Cc3cnccc3CC2CN1[C@H]1[C@@H]2CC3C[C@H]1C[C@](O)(C3)C2` (stereo partly shown) [Compound 30], the IC50 at 11b-HSD1 was 1000 to 10000 nM; on hHSD1, more than 10000 nM; on 11b-HSD2 it was more than 10000 nM.

Regarding `O=C1[C@@H]2CCc3ccccc3[C@H]2CN1[C@H]1[C@@H]2CC3C[C@H]1C[C@](O)(C3)C2` [Compound 31], the IC50 on 11b-HSD1, at hHSD1 and at 11b-HSD2 was less than 1000 nM throughout.

Consider `O=C1[C@@H]2CCc3ccccc3[C@H]2CN1[C@H]1[C@@H]2CC3C[C@H]1C[C@](F)(C3)C2` [Compound 32], for which the IC50 at 11b-HSD1, on hHSD1 and on 11b-HSD2 was less than 1000 nM throughout.

Regarding `O=C1[C@@H]2CCc3ccccc3[C@@H]2CN1[C@H]1[C@@H]2CC3C[C@H]1C[C@](O)(C3)C2` [Compound 33], the IC50 at 11b-HSD1, on hHSD1 and on 11b-HSD2 was less than 1000 nM each time.

`O=C1[C@H]2Cc3cnccc3C[C@H]2CN1[C@H]1[C@@H]2CC3C[C@H]1C[C@](O)(C3)C2` [Compound 34]: the IC50 at 11b-HSD1 and on hHSD1 was 1000 to 10000 nM each time.
